Measurements reported in US9012411B2, “Formulations from derivatives of curcumin, paclitaxel, and aspirin” (Organomed Corporation, priority 2009, dated 2015).
≈ marks a conversion by molar mass, not a printed value. Marks after values point to notes of the source that are not given here.

What was measured:
[1] = system: breast (SKBR3) cancer cell line; experiment: Cellular inhibition, Alamar Blue; assay type: cell-based; conditions: Homo sapiens, SK-BR-3
Description: (§1) Assays were performed with 3 cancer cell lines: breast (SKBR3), pancreatic (Panc1), prostate (PC-3) and 1 normal (nor-cancer) cell line (WI-38). Compounds were delivered to the cells after dissolving in DMSO. Five dilutions per compound were tested on a total of 4 cell lines in 96 well plates. Cellular inhibition was measured using Alamar Blue. After addition of compound a 24 hour and 48 hour time point using fluorescent plate reader was taken. Data from plate reader was analyzed in the following way: % inhibition bar graphs, % inhibition line graphs and IC50 growth inhibition values. In Tables 7-14, IC50 units are Molar (M).

[2] = system: normal (non-cancer) cell line WI-38; experiment: Cellular inhibition, Alamar Blue; assay type: cell-based; conditions: for IC50: Homo sapiens, WI-38
Description: as §1

[3] = system: pancreatic (Panc1) cancer cell line; experiment: Cellular inhibition, Alamar Blue; assay type: cell-based; conditions: Homo sapiens, PANC-1
Description: as §1

[4] = system: prostate (PC-3) cancer cell line; experiment: Cellular inhibition, Alamar Blue; assay type: cell-based
Description: as §1

PANC-1 cells [5] = experiment: GI50 (50% inhibition of cell growth), MTT assay, 72 hours; assay type: cell-based; conditions: Homo sapiens, PANC-1, 72 h
Description: (§2) The cells were plated onto a 96 well plate and treated with different concentrations of the compounds from 1 ng/ml to 10 ug/ml for 72 hours followed by MTT assay.
(§3) The cells were plated onto a 96 well plate and treated with different concentrations of the compounds from 0.04 ng/ml to 400 ng/ml for 72 hours followed by MTT assay.

PC3 cells [6] = experiment: as above; assay type: cell-based; conditions: Homo sapiens, PC-3, 72 h, PC3, 72 hours
Description: as §2, §3

SK-BR-3 cells [7] = experiment: as above; assay type: cell-based; conditions: Homo sapiens, SK-BR-3, 72 h
Description: as §2, §3

WI38 normal cell line [8] = experiment: as above; assay type: cell-based; conditions: Homo sapiens, WI-38, 72 h, WI38, 72 hours
Description: as §2, §3

PANC-1 cells [9] = experiment: EC50 cytotoxicity, MTT assay, 48 hours; assay type: cell-based; conditions: Homo sapiens; PANC-1, 48 hours, 0.04 ng/ml to 400 ng/ml
Description: (§4) Cytotoxicity of the compounds on three different cancer cell lines and one normal cell line was tested. Four human cell lines including both cancer cell lines (SK-BR-3, PANC-1, PC3) and normal cell line (W138) were initially employed. The cells (20,000 cells/well) were plated onto a 96-well plate for 24 hours before treatment. The compounds were diluted in the medium and added to the cells at different concentrations for additional 48 hours from 0.04 ng/ml to 400 ng/ml. MTT assay was then performed.

PC3 cells [10] = experiment: EC50 cytotoxicity, MTT assay, 48 hours; assay type: cell-based; conditions: Homo sapiens, PC-3; PC3, 48 hours, 0.04 ng/ml to 400 ng/ml
Description: as §4

SK-BR-3 cells [11] = experiment: EC50 cytotoxicity, MTT assay, 48 hours; assay type: cell-based; conditions: Homo sapiens; SK-BR-3, 48 hours, 0.04 ng/ml to 400 ng/ml
Description: as §4

WI38 normal cell line [12] = experiment: EC50 cytotoxicity, MTT assay, 48 hours; assay type: cell-based; conditions: Homo sapiens, WI-38; WI38, 48 hours, 0.04 ng/ml to 400 ng/ml
Description: as §4

[13] = In vitro enzyme hydrolysis in human serum (HPLC); assay type: in vitro ADME; conditions: 25% human serum; for Test compound Rate: rate of decomposition of test compound; for Test compound Concentration: remaining test compound
Description: A 25% solution of human serum in 0.01M phosphate buffer was taken and the test compound (glucose aspirin or aspirin) were added to get a concentration of 0.2 mg/mL. The hydrolysis for the rate of release of salicylic acid and the rate of decomposition of the test compound were measured by HPLC.

[14] = system: carrageenan induced rat paw edema; experiment: Carrageenan induced rat paw edema; assay type: in vivo, albino rats; conditions: for Percent inhibition of paw edema (Std. Error): Example 9, 100 mg/kg oral with food
Description: Animals were kept under 13 hour day night cycle. Animals were given standard diet and water was provided ad, libitum. All animals were acclimatized for at least one week before the experimental session. Animals were divided in to five groups. Each group consisted of 8 animals.
Pedal inflammation in albino rats of either sex was produced according to the method of Winter et al., (Proc Soc Exp Biol Med 1963; 111: 544-7). An injection was made with 0.1 ml of 1% carrageenan (SIGMA) suspension into the right hind foot of each rat in the plantar region. […] Control group 5 was given 0.5 ml saline and groups 1 and 2 received aspirin. Increase in linear paw circumference was measured by tying a piece of cotton thread round the rat's paw, and noting the point of intersection of two ends on a meter scale. This was taken as an index of increase in paw volume, which is a measure of oedema (Bamgbose S O A, Noamesi B K. Planta Med 1981; 42: 392-6). Measurements were taken immediately before and at 1, 2 and 3 hours after carrageenan injection. The inhibitory activity was calculated according to the following formula (Awe S O, Olajide O A, Adeboye J O, Makinde J M. Indian J Pharmacol 1998; 30: 38-42):
[formula] Ct-Linear paw circumference 3 hours after carrageenan injection and Co-Linear paw circumference before carrageenan injection.
Albino rats obtained from central animal house of institute were used in the study. The animals were kept under 12 hour day night cycle. Animals were given standard diet and water was provided ad libitum. All animals were acclimatized for at least one week before the experimental session. Animals were divided into twelve groups in the carrageenan induced paw edema and tail flick method. Each group consisted of 4 animal each.
Animals were divided into eight groups in the carrageenan induced paw edema and tail flick method. Each group consisted of 6 animal each. The groups received various chemicals as given in Table 16 by oral administration with food. The following methods were used to evaluate the activity of the compositions:
Pedal inflammation in albino rats of either sex was produced according to the method of Winter et al. (Proc. Soc. Exp. Biol. Med., 1963, 111: 544-547). An injection was made with 0.1 ml of 1% carrageenan (SIGMA) suspension into the right hind foot of each rat in the plantar region. The various chemicals were given 30 minutes before carrageenan injection. Increase in linear paw circumference was measured by tying a piece of cotton thread round the rat's paw, and noting the point of intersection of two ends on a meter scale. This was taken as an index of increase in paw volume, which is a measure of edema (Bamgbose, S. O. A. & Noamesi, B. K., Planta. Med., 1981, 42: 392-396). Measurements were taken immediately before and at 1, 2 and 3 hours after carrageenan injection. The inhibitory activity was calculated according to the following formula (Awe S O, Olajide O A, Adeboye J O, Makinde J M. Indian J. Pharmacol., 1998; 30: 38-42):
Animals were divided into six groups in the carrageenan induced paw edema and tail flick method. Each group consisted of 8 animals each. Carrageenan-induced rat paw edema and Tail flick test were performed as discussed above in Example 8. Data were analyzed using analysis of variance (ANOVA) with Posthoc Bonferroni multi-comparisons. P<0.05 was considered as statistically significant.

[15] = system: tail flick latency in rats; experiment: Tail flick test (analgesic activity); assay type: in vivo, albino rats
Description: Rats were screened for tail flip reaction with a cut-off time of 5 seconds. For each animal, the tail flick latency was obtained thrice before drug administration and mean was used as pre-drug latency. The tail flick latencies were measured at 0, 0.5, 1, 1.5, 2 and 3 h after administration chemicals.
Albino rats obtained from central animal house of institute were used in the study. The animals were kept under 12 hour day night cycle. Animals were given standard diet and water was provided ad libitum. All animals were acclimatized for at least one week before the experimental session. […] Each group consisted of 4 animal each.
Rats were screened for tail flip reaction with a cut-off time of 5 seconds. For each animal, the tail flick latency was obtained thrice before drug administration and mean was used as pre-drug latency. The tail flick latencies were measured at 0, 0.5, 1, 1.5, 2 and 3 h after administration of chemicals.
Each group consisted of 8 animals each. […] Data were analyzed using analysis of variance (ANOVA) with Posthoc Bonferroni multi-comparisons. P<0.05 was considered as statistically significant.

[16] = system: cancer cell lines SKBR3, Panc1, PC-3; experiment: Cellular inhibition, Alamar Blue, cancer cell lines taken together; assay type: cell-based; conditions: 24 hours
Description: as §1

[17] = water at 25° C.; Merck Index; cited from earlier work
[18] = 0.04 ng/ml to 400 ng/ml (Example 14)
[19] = 1 ng/ml to 10 ug/ml (Example 8)
[20] = Example 6, 50-200 mg/kg, compared with control groups and aspirin

CC(=O)O[C@H]1C(=O)[C@@]2(C)[C@H]([C@H](OC(=O)c3ccccc3)[C@]3(O)C[C@H](OC(=O)[C@H](O)[C@@H](NC(=O)c4ccccc4)c4ccccc4)C(C)=C1C3(C)C)[C@]1(OC(C)=O)CO[C@@H]1C[C@@H]2O [Taxol, Paclitaxel]
IC50 ([1]; SKBR3, 24 hours): 0.694 µM
IC50 ([1]; SKBR3, 48 hours): 3.23 µM
Effect on normal cell growth (WI-38) (in words) ([2]; 48 hours): some effect on normal cell growth
IC50 ([2]; WI38, 24 hours): 19.1 µM
IC50 ([2]; WI38, 48 hours): 80 µM
IC50 ([3]; PANC1, 24 hours): 0.153 µM
IC50 ([3]; PANC1, 48 hours): 0.18 µM
IC50 ([4]; PC3, 24 hours): 0.0581 µM
IC50 ([4]; PC3, 48 hours): 0.0803 µM
inhibition ([4]; PC-3, 48 hours, all concentrations): ~60%
GI50 (PANC-1 cells [5]; [18]): 5.46 ng/mL (≈ 6.39 nM)
GI50 (PANC-1 cells [5]; [19]): 1.8 ng/mL (≈ 2.11 nM)
GI50 (PC3 cells [6]; [18]): 0.05 ng/mL (≈ 0.0586 nM)
GI50 (PC3 cells [6]; [19]): 258 ng/mL (≈ 302 nM)
GI50 (SK-BR-3 cells [7]; [18]): 0.78 ng/mL (≈ 0.913 nM)
GI50 (SK-BR-3 cells [7]; [19]): 1.15 ng/mL (≈ 1.35 nM)
GI50 (WI38 normal cell line [8]; [18]): 5.6 ng/mL (≈ 6.56 nM)
GI50 (WI38 normal cell line [8]; [19]): 514 ng/mL (≈ 602 nM)
EC50 (PANC-1 cells [9]): 32.8 ng/mL (≈ 38.4 nM)
EC50 (PC3 cells [10]): 8.51 ng/mL (≈ 9.97 nM)
EC50 (SK-BR-3 cells [11]): 36.1 ng/mL (≈ 42.2 nM)
EC50 (WI38 normal cell line [12]): 37.9 ng/mL (≈ 44.4 nM)

CC(=O)Oc1ccccc1C(=O)O [Aspirin, acetylsalicylic acid]
Average rate, test compound ([13]; decomposition of test compound, 0-180 min): -1.57e-06 M/min
Test compound Rate ([13]; 0 min): 0 M/min
Test compound Rate ([13]; 30 min): -1.4e-06 M/min
Test compound Rate ([13]; 60 min): -9.81e-07 M/min
Test compound Rate ([13]; 90 min): -2.32e-06 M/min
Test compound Rate ([13]; 120 min): -1.56e-06 M/min
Test compound Rate ([13]; 180 min): -1.58e-06 M/min
Test compound Concentration ([13]; 0 min): 457 µM
Test compound Concentration ([13]; 30 min): 415 µM
Test compound Concentration ([13]; 60 min): 399 µM
Test compound Concentration ([13]; 90 min): 248 µM
Test compound Concentration ([13]; 120 min): 270 µM
Test compound Concentration ([13]; 180 min): 174 µM
Paw circumference ([14]; Example 6, 100 mg/kg, 0 h): 3.125 ± 0.13 mm
Paw circumference ([14]; Example 6, 100 mg/kg, 1 h): 3.475 ± 0.15 mm
Paw circumference ([14]; Example 6, 100 mg/kg, 2 h): 3.6 ± 0.14 mm
Paw circumference ([14]; Example 6, 100 mg/kg, 3 h): 3.475 ± 0.10 mm
Paw circumference ([14]; Example 6, 200 mg/kg, 0 h): 3.3 ± 0.18 mm
Paw circumference ([14]; Example 6, 200 mg/kg, 1 h): 3.425 ± 0.21 mm
Paw circumference ([14]; Example 6, 200 mg/kg, 2 h): 3.575 ± 0.13 mm
Paw circumference ([14]; Example 6, 200 mg/kg, 3 h): 3.55 ± 0.10 mm
% inhibition of paw edema (in words) [14, 20]: significantly inhibited the development of the edema
Paw circumference ([14]; Example 8 (in vivo), 100 mg/kg oral with food, 0 h): 3.4 mm
Paw circumference ([14]; Example 8 (in vivo), 100 mg/kg oral with food, 1 h): 3.82 mm
Paw circumference ([14]; Example 8 (in vivo), 100 mg/kg oral with food, 2 h): 3.58 mm
Paw circumference ([14]; Example 8 (in vivo), 100 mg/kg oral with food, 3 h): 3.67 mm
Percent inhibition of paw edema (Std. Error) ([14]; 1 hr): 55.44%
Percent inhibition of paw edema (Std. Error) ([14]; 2 hr): 79.16%
Percent inhibition of paw edema (Std. Error) ([14]; 3 hr): 75.29%
Tail flick latency / analgesic activity (in words) ([15]; Example 5, 100 and 200 mg/kg i.p., rats): significant increase in the tail flick latency
Tail flick latency time ([15]; Example 6, 100 mg/kg, 0 min): 1.64 ± 0.27 s
Tail flick latency time ([15]; Example 6, 100 mg/kg, 30 min): 3.28 ± 0.26 s
Tail flick latency time ([15]; Example 6, 100 mg/kg, 60 min): 3.28 ± 0.57 s
Tail flick latency time ([15]; Example 6, 100 mg/kg, 90 min): 2.88 ± 0.26 s
Tail flick latency time ([15]; Example 6, 100 mg/kg, 120 min): 2.73 ± 0.48 s
Tail flick latency time ([15]; Example 6, 100 mg/kg, 180 min): 2.05 ± 0.76 s
Tail flick latency time ([15]; Example 6, 200 mg/kg, 0 min): 2.32 ± 0.46 s
Tail flick latency time ([15]; Example 6, 200 mg/kg, 30 min): 3.46 ± 0.77 s
Tail flick latency time ([15]; Example 6, 200 mg/kg, 60 min): 3.46 ± 0.17 s
Tail flick latency time ([15]; Example 6, 200 mg/kg, 90 min): 3.03 ± 0.42 s
Tail flick latency time ([15]; Example 6, 200 mg/kg, 120 min): 3.12 ± 0.30 s
% MPE / analgesic activity in tail flick test (in words) [15, 20]: significantly more
Tail flick latency time ([15]; Example 8 (in vivo), 100 mg/kg oral with food, 0 min): 2.37 s
Tail flick latency time ([15]; Example 8 (in vivo), 100 mg/kg oral with food, 30 min): 2.75* seconds
Tail flick latency time ([15]; Example 8 (in vivo), 100 mg/kg oral with food, 60 min): 2.68 s
Tail flick latency time ([15]; Example 8 (in vivo), 100 mg/kg oral with food, 90 min): 2.57 s
Tail flick latency time ([15]; Example 8 (in vivo), 100 mg/kg oral with food, 120 min): 2.23 s
Tail flick latency time ([15]; Example 8 (in vivo), 100 mg/kg oral with food, 180 min): 2.37 s
IC50 ([1]; SKBR3, 24 hours): 731 µM
IC50 ([1]; SKBR3, 48 hours): 693 µM
IC50 ([2]; WI38, 24 hours): 619 µM
IC50 ([2]; WI38, 48 hours): 501 µM
IC50 ([3]; PANC1, 24 hours): 975 µM
IC50 ([3]; PANC1, 48 hours): 745 µM
IC50 ([4]; PC3, 24 hours): 771 µM
IC50 ([4]; PC3, 48 hours): 782 µM
inhibition of cancer cell growth (in words) [16]: did not seem to inhibit growth by any significant means
Aspirin solubility in water [17]: 0.33 g/100 mL
